The values below come from patent US11547707B2, “Carbamoyl cyclohexane derivatives for treating autism spectrum disorder” (Richter Gedeon Nyrt., priority 2019, dated 2023).

In one experiment the test system is Fmr1 knock-out mice. The conditions noted are these: Lim et al. 2014; cited from earlier work.
Experiment [1] has as its target T1, serotonin 5-HT1A receptor (Homo sapiens, UniProt P08908).
T1 sequence (P08908 1-422): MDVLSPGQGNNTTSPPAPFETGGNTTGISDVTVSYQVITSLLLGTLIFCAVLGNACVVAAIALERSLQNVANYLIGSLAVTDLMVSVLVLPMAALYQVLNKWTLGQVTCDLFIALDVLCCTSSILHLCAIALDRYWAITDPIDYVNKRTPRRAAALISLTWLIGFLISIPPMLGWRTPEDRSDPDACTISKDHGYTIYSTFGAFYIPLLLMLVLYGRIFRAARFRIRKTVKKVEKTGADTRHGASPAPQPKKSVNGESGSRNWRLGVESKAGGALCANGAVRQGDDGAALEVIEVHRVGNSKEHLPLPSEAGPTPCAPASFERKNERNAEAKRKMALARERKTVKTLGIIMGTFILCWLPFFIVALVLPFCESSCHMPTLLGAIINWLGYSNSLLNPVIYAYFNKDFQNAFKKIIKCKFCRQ
The conditions noted are these: Compound 2, company data.

Experiment [2] addresses T2, serotonin 5-HT2B receptor (Homo sapiens, UniProt P41595). The experiment in a line: functional activity at serotonin 5-HT2B receptor. Type of experiment: biochemical. The conditions noted are these: Compound 2, company data.
In experiment [3] the target is T3, dopamine D2 receptor (Homo sapiens, UniProt P14416). The experiment in a line: functional activity at dopamine D2 receptor. The conditions noted are these: Compound 2, company data. Type of experiment: biochemical.
T3 sequence (P14416 whole entry): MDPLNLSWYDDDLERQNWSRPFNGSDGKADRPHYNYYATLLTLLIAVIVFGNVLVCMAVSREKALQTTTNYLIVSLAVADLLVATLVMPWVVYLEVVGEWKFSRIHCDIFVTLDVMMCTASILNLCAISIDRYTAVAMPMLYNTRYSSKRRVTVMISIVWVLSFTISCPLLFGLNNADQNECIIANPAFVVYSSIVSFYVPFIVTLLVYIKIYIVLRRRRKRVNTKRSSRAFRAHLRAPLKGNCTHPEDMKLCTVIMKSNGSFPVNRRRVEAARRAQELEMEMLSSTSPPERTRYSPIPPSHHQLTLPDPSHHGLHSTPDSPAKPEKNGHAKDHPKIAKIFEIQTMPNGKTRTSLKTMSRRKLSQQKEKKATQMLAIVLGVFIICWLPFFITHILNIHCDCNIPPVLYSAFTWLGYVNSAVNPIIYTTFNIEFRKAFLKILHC
Experiment [4] deals with ASD mouse models (prenatal valproate, Cntnap2 knockout, NR1 hypomorph, BTBR). To be noted: several ASD mouse models, literature; cited from earlier work.
In experiment [5] the target is T1, serotonin 5-HT1A receptor. To be noted: in vitro, literature; cited from earlier work.
Experiment [6] has as its system prenatally valproate-treated mice. To be noted: Hara et al. 2017, cited from earlier work.
The target of experiment [7] is T1, serotonin 5-HT1A receptor. The conditions noted are these: literature; cited from earlier work.
The target in experiment [8] is T2, serotonin 5-HT2B receptor. To be noted: in vitro, literature; cited from earlier work.
The next experiment concerns ASD patients. To be noted: cited from earlier work.
For experiment [9], the target named is T3, dopamine D2 receptor. To be noted: cited from earlier work.
In experiment [10] the target is T2, serotonin 5-HT2B receptor. The conditions noted are these: literature; cited from earlier work.
In a further experiment the test system is dopamine D2 receptors. The conditions noted are these: in vivo; cited from earlier work.

Each structure is given as a SMILES string. Read-outs that look alike come from different tables or passages of the source.

T2 sequence (P41595 whole entry): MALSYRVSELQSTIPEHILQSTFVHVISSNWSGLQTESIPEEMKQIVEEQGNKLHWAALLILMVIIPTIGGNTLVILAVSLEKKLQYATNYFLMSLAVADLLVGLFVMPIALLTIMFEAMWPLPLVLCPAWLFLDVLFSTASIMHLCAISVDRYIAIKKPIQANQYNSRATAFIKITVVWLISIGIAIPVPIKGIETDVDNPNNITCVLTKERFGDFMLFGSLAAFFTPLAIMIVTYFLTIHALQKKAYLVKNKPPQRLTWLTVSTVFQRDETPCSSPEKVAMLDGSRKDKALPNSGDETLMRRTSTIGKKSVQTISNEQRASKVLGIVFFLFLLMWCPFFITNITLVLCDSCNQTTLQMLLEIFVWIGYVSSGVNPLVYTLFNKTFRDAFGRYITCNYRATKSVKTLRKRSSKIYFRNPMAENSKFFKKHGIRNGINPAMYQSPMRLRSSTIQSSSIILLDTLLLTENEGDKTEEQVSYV

Take `CC(N)Cc1c[nH]c2ccc(OCc3cccs3)cc12` (centres unmarked) [BW723C86]: in the experiment on Fmr1 knock-out mice, the “effect on cognitive abilities” value was “improvement of cognitive abilities”.

On to `O=C(N[C@H]1CC[C@H](CCN2CCN(c3cccc(Cl)c3Cl)CC2)CC1)N1CCOCC1` [Compound 2, trans-N-(4-{2-[4-(2,3-dichloro-phenyl)-piperazine-1-yl]-ethyl}-cyclohexyl)-morpholine-4 carboxamide], for which the “functional character at serotonin 5-HT1A receptor” value in [1] was “weak partial agonists”. Further, the “functional character at serotonin 5-HT2B receptor” value in experiment [2] is given as “full antagonist”. For the same molecule, the “functional character at dopamine D2 receptor” value on dopamine D2 receptor [3] is “partial agonist”.

`O=C1CCc2ccc(OCCCCN3CCN(c4cccc(Cl)c4Cl)CC3)cc2N1` [aripiprazole]: in [4], the “effect on social behavior deficits” value is “neither aripiprazole nor risperidone could improve”. Moreover, in experiment [5], the “affinity for 5-HT1A receptor (in words)” value is listed as “high affinity”. The “effect on core behavioral deficits” value in experiment [6] (acute treatment) is recorded as “without effect”; in experiment [6] (chronic administration), “improved core behavioral deficits”. Moreover, in experiment [7], the “functional character at serotonin 5-HT1A receptor” value is listed as “partial agonist”. Besides, the “affinity for 5-HT2B receptor (in words)” value in experiment [8] was “high affinity”. Moreover, in the experiment with ASD patients (open label trials), the “lethargy/social withdrawal subscale of the Aberrant Behavioral Checklist” value is “did not improve”.

As for `CN(C)C(=O)N[C@H]1CC[C@H](CCN2CCN(c3cccc(Cl)c3Cl)CC2)CC1` [cariprazine, trans-N-[4-[2-[4-(2,3-dichlorophenyl)piperazin-1-yl]ethyl]cyclohexyl]-N′,N′-dimethylurea], in [7], the “functional character at serotonin 5-HT1A receptor” value was “weak partial agonists” and the “intrinsic activity at serotonin 5-HT1A receptor” value is 38%. The “functional character at dopamine D2 receptor” value at dopamine D2 receptor [9] is listed as “partial agonist”. Further, the “functional character at serotonin 5-HT2B receptor” value in [10] is given as “full antagonist”.

Regarding `Cc1nc2n(c(=O)c1CCN1CCC(c3noc4cc(F)ccc34)CC1)CCCC2` [risperidone], the “effect on social behavior deficits” value in [4] is listed as “neither aripiprazole nor risperidone could improve”. The figures for the “effect on core behavioral deficits” value in experiment [6] (acute treatment) and in experiment [6] (chronic administration) were “without effect” and “improved core behavioral deficits”, respectively. The “occupancy of dopamine D2 receptors” value in the experiment on dopamine D2 receptors was “occupy dopamine D2 receptors”. The “effect on core symptoms” value with ASD patients (children with pervasive developmental disorders with high baseline irritability) is “modest improvements”.
